We go through five compounds from patent US6783949B1, “Processes for determining whether a test substance contains lipases or lipase inhibitors” (Aventis Pharma Deutschland GmbH, priority 1999, dated 2004).

This experiment has as its target T1, lipases, preferably HSL (Rattus norvegicus, UniProt P15304).
T1 sequence (P15304 1-768 isoform P15304-2): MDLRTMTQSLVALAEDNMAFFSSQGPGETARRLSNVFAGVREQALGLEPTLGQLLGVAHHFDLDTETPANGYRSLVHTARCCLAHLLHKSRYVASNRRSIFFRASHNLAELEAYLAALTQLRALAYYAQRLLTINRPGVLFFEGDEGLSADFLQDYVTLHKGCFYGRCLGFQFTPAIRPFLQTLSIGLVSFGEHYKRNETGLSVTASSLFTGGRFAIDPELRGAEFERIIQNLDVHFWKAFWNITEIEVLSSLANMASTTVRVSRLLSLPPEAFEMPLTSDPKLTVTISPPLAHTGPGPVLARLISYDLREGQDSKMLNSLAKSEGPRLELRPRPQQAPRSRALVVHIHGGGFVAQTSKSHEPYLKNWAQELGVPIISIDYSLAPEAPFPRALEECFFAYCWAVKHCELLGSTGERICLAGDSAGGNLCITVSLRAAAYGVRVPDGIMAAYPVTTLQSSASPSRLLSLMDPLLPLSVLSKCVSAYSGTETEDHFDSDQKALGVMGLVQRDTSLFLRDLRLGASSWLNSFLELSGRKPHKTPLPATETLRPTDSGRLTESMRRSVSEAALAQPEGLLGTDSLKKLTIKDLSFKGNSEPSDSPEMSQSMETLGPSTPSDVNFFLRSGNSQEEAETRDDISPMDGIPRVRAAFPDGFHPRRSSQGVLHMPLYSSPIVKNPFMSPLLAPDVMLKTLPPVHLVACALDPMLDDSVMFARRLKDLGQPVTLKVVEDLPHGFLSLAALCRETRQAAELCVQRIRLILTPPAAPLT
The experiment is described as follows: Synthesized NBD-acylglycerides as substrates of lipases. In kind it is biochemical.
For the compound `CC(=O)OCC(COC(=O)CCCCCCCCCCCNc1ccc([N+](=O)[O-])c2nonc12)OC(C)=O` (centres unmarked) [Compound (4), 2-Acetoxy-3-[12-(7-nitrobenzo[1,2,5]oxadiazol-4-ylamino)-dodecanoyloxy]propyl acetate], the “Activity as substrate of lipases” value is “decrease in activity”.
Regarding `CCCCCCCCCCCCCCCC(=O)OCC(COC(=O)CCCCCCCCCCCNc1ccc([N+](=O)[O-])c2nonc12)OC(C)=O` (centres unmarked) [Compound (7), 2-Acetyloxy-3-[12-(7-nitrobenzo[1,2,5]oxadiazol-4-ylamino)-dodecanoyloxy]propyl hexadecanoate], the “Activity as substrate of lipases” value was “decrease in activity”.
Turning to `CCCCCC(=O)OCC(COC(=O)CCCCCCCCCCCNc1ccc([N+](=O)[O-])c2nonc12)OC(=O)CCCCC` (centres unmarked) [Compound (5), 2-Hexanoyloxy-3-[12-(7-nitrobenzo[1,2,5]oxadiazol-4-ylamino)-dodecanoyloxy]propyl hexanoate], the “Activity as substrate of lipases” value is on record as “decrease in activity”.
The value for “2-Hydroxy-3-[12-(7-nitrobenzo[1,2,5]oxadiazol-4-ylamino)-odecanoyloxy]propyl hexadecanoate [Compound (6)]” was “decrease in activity”; that for `O=C(CCCCCCCCCCCNc1ccc([N+](=O)[O-])c2nonc12)OC[C@H](O)CO` [Compound (3b), (R)-2,3-dihydroxypropyl 12-(7-nitrobenzo[1,2,5]oxadiazol-4-ylamino)dodecanoate] was “identical biological activity”.
